Assays:
[1] = 101 kPa, Liquid; for electrical conductivity: Crison GLP 31+ conductivimeter
[2] = xn = mol fraction of the nth substance listed; conditions: 101 kPa, Liquid; for electrical conductivity: Crison GLP 31+ conductivimeter

CCCCn1cc[n+](C)c1.F[B-](F)(F)F [1-butyl-3-methylimidazolium tetrafluoroborate]
[1]
Conditions	electrical conductivity [S/m]	viscosity [mPa·s]
288.15 K	–	173.5
298.15 K	0.352	99.2
308.15 K	–	61.3
318.15 K	–	40.4

CCn1cc[n+](C)c1.F[B-](F)(F)F [1-ethyl-3-methylimidazolium tetrafluoroborate]
[1]
Conditions	electrical conductivity [S/m]	viscosity [mPa·s]
288.15 K	–	55.5
298.15 K	1.63	36.9
308.15 K	–	26
318.15 K	–	19.17

CCn1cc[n+](C)c1.F[B-](F)(F)F [1-ethyl-3-methylimidazolium tetrafluoroborate] + CCO
[2]
Conditions	electrical conductivity [S/m]	viscosity [mPa·s]
288.15 K, x2 = 0	–	55.5
288.15 K, x2 = 0.0946	–	34.76
288.15 K, x2 = 0.1928	–	25.25
288.15 K, x2 = 0.2757	–	20.25
288.15 K, x2 = 0.3116	–	18.17
288.15 K, x2 = 0.3913	–	13.68
288.15 K, x2 = 0.4553	–	12.47
298.15 K, x2 = 0	1.63	36.9
298.15 K, x2 = 0.028	1.718	–
298.15 K, x2 = 0.057	1.843	–
298.15 K, x2 = 0.0719	1.911	–
298.15 K, x2 = 0.0946	–	24.46
298.15 K, x2 = 0.1034	2.061	–
298.15 K, x2 = 0.1624	2.287	–
298.15 K, x2 = 0.1928	–	18.33
298.15 K, x2 = 0.242	2.647	–
298.15 K, x2 = 0.2757	–	14.92
298.15 K, x2 = 0.3116	–	13.47
298.15 K, x2 = 0.3165	2.982	–
298.15 K, x2 = 0.3892	3.228	–
298.15 K, x2 = 0.3913	–	10.3
298.15 K, x2 = 0.4085	3.278	–
298.15 K, x2 = 0.4322	3.26	–
298.15 K, x2 = 0.4511	3.47	–
298.15 K, x2 = 0.4553	–	8.445
298.15 K, x2 = 0.4613	3.561	–
308.15 K, x2 = 0	–	26
308.15 K, x2 = 0.0946	–	18.04
308.15 K, x2 = 0.1928	–	13.88
308.15 K, x2 = 0.2757	–	11.39
308.15 K, x2 = 0.3116	–	10.38
308.15 K, x2 = 0.3913	–	8.074
308.15 K, x2 = 0.4553	–	6.668
318.15 K, x2 = 0	–	19.17
318.15 K, x2 = 0.0946	–	13.79
318.15 K, x2 = 0.1928	–	10.84
318.15 K, x2 = 0.2757	–	8.958
318.15 K, x2 = 0.3116	–	8.238
318.15 K, x2 = 0.3913	–	6.494
318.15 K, x2 = 0.4553	–	5.408

CCCCCCn1cc[n+](C)c1.F[B-](F)(F)F [1-hexyl-3-methylimidazolium tetrafluoroborate]
[1]
Conditions	electrical conductivity [S/m]	viscosity [mPa·s]
288.15 K	–	357.5
298.15 K	0.126	190.9
308.15 K	–	110.3
318.15 K	–	68.5

CCCCCCCC[n+]1ccn(C)c1.F[B-](F)(F)F [1-methyl-3-octylimidazolium tetrafluoroborate]
[1]
Conditions	electrical conductivity [S/m]	viscosity [mPa·s]
288.15 K	–	686
298.15 K	0.069	337.4
308.15 K	–	187.7
318.15 K	–	112.1

CCO [ethanol]
[1]
Conditions	electrical conductivity [S/m]	viscosity [mPa·s]
288.15 K	–	1.296
298.15 K	3e-05	1.091
308.15 K	–	0.9153
318.15 K	–	0.7738

CCO [ethanol] + CCCCCCCC[n+]1ccn(C)c1.F[B-](F)(F)F
Conditions	electrical conductivity [S/m]
[2], 298.15 K, x1 = 1	3e-05

CCO [ethanol] + CCn1cc[n+](C)c1.F[B-](F)(F)F
[2], x1 = 1
Conditions	viscosity [mPa·s]
288.15 K	1.296
298.15 K	1.091
308.15 K	0.9153
318.15 K	0.7738

— the NIST ThermoML archive (doi:10.1021/je100687x)
